Assay results reported in patent publication US8802597B2, “Herbicidal pyrimidines” (E I du Pont de Nemours and Company, priority 2003, dated 2014).
Like-named read-outs stand apart in the source and are kept apart here.

How the values were obtained:
Test in all cases: Test C pre/postemergence
Assay type in all cases: in vivo
[1] = system: Surinam grass (Brachiaria decumbens); conditions: for pest or weed control at 16 g/ha: 16 g ai/ha
Method in brief: (§1)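 We sprayed seeded pots preemergence and 2–18 cm seedlings postemergence with test chemicals in a non-phytotoxic solvent mixture including surfactant. Greenhouse plants were visually compared with untreated controls at 12 to 14 days and scored 0 (no effect) to 100 (complete control).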

[2] = system: crabgrass (Digitaria sanguinalis); conditions: for pest or weed control at 16 g/ha: 16 g ai/ha
Method in brief: as §1

[3] = system: morningglory (Ipomoea coccinea); conditions: for Plant response rating, Morningglory: Preemergence
Method in brief: as §1

[4] = system: common (oilseed) sunflower (Helianthus annuus); conditions: Preemergence, scale 0 to 100, 0 no effect, 100 complete control
Method in brief: as §1

[5] = system: pigweed (Amaranthus retroflexus); conditions: for pest or weed control at 16 g/ha: 16 g ai/ha
Method in brief: as §1

[6] = system: woolly cupgrass (Eriochloa villosa); conditions: for pest or weed control at 16 g/ha: 16 g ai/ha
Method in brief: as §1

[7] = system: johnsongrass (Sorghum halepense); conditions: for pest or weed control at 16 g/ha: 16 g ai/ha
Method in brief: as §1

[8] = system: velvetleaf (Abutilon theophrasti); conditions: for Plant response rating, Velvetleaf: Preemergence, scale 0 to 100, 0 no effect, 100 complete control
Method in brief: as §1

[9] = system: giant foxtail (Setaria faberii); conditions: for pest or weed control at 16 g/ha: 16 g ai/ha
Method in brief: as §1

[10] = system: cocklebur (Xanthium strumarium); conditions: for Plant response rating, Cocklebur: Preemergence
Method in brief: as §1

[11] = system: yellow nutsedge (Cyperus esculentus); conditions: for pest or weed control at 16 g/ha: 16 g ai/ha
Method in brief: as §1

[12] = system: kochia (Kochia scoparia); conditions: for pest or weed control at 31 g/ha: 31 g ai/ha
Method in brief: as §1

[13] = Preemergence, 31 g ai/ha, scale 0 to 100, 0 no effect, 100 complete control
[14] = Preemergence, 62 g ai/ha, scale 0 to 100, 0 no effect, 100 complete control
[15] = Preemergence, 125 g ai/ha, scale 0 to 100
[16] = 16 g ai/ha, scale 0 to 100, 0 no effect, 100 complete control
[17] = 31 g ai/ha, scale 0 to 100, 0 no effect, 100 complete control
[18] = 62 g ai/ha, scale 0 to 100, 0 no effect, 100 complete control

Nc1nc(C2CC2)nc(C(=O)O)c1Cl [Compound 135, 6-amino-5-chloro-2-cyclopropyl-4-pyrimidinecarboxylic acid]
Plant response rating, Surinam Grass [1, 13]: 0
Plant response rating, Surinam Grass [1, 14]: 0
pest or weed control at 125 g/ha ([1]; Urochloa decumbens, post-emergence, Postemergence, 125 g ai/ha, scale 0 to 100 (0 no effect, 100 complete control), read-out: Surinam Grass plant response rating): 60%
pest or weed control at 16 g/ha ([1]; Urochloa decumbens, post-emergence, Postemergence, read-out: Plant response rating (scale of 0 to 100), Surinam Grass): 45%
pest or weed control at 31 g/ha ([1]; Urochloa decumbens, post-emergence, Postemergence, 31 g ai/ha, read-out: Plant response rating (scale of 0 to 100), Surinam Grass): 50%
pest or weed control at 62 g/ha ([1]; Urochloa decumbens, post-emergence, Postemergence, 62 g ai/ha, read-out: Plant response rating (scale of 0 to 100), Surinam Grass): 60%
pest or weed control at 16 g/ha ([1]; Urochloa decumbens, pre-emergence, Preemergence, scale 0 to 100, 0 no effect, 100 complete control, read-out: Plant response rating, Surinam Grass): 0%
pest or weed control at 16 g/ha ([2]; Digitaria sanguinalis, post-emergence, Postemergence, read-out: Plant response rating (scale of 0 to 100), Crabgrass): 65%
pest or weed control at 31 g/ha ([2]; Digitaria sanguinalis, post-emergence, Postemergence, 31 g ai/ha, read-out: Plant response rating (scale of 0 to 100), Crabgrass): 75%
pest or weed control at 62 g/ha ([2]; Digitaria sanguinalis, post-emergence, Postemergence, 62 g ai/ha, read-out: Plant response rating (scale of 0 to 100), Crabgrass): 75%
pest or weed control at 125 g/ha ([2]; Digitaria sanguinalis, post-emergence, Postemergence, 125 g ai/ha, scale 0 to 100 (0 no effect, 100 complete control), read-out: Crabgrass plant response rating): 75%
pest or weed control at 16 g/ha ([2]; Digitaria sanguinalis, pre-emergence, Preemergence, scale 0 to 100, 0 no effect, 100 complete control, read-out: Plant response rating, Crabgrass): 0%
Plant response rating, Crabgrass [2, 13]: 0
Plant response rating, Crabgrass [2, 14]: 0
Plant response rating, Crabgrass [2, 15]: 5
pest or weed control at 16 g/ha ([3]; Ipomoea, post-emergence, Postemergence, 16 g ai/ha, read-out: Plant response rating (scale of 0 to 100), Morningglory): 80%
pest or weed control at 31 g/ha ([3]; Ipomoea, post-emergence, Postemergence, 31 g ai/ha, read-out: Plant response rating (scale of 0 to 100), Morningglory): 90%
pest or weed control at 62 g/ha ([3]; Ipomoea, post-emergence, Postemergence, 62 g ai/ha, read-out: Plant response rating (scale of 0 to 100), Morningglory): 95%
pest or weed control at 125 g/ha ([3]; Ipomoea, post-emergence, Postemergence, 125 g ai/ha, scale 0 to 100 (0 no effect, 100 complete control), read-out: Morningglory plant response rating): 95%
Plant response rating, Morningglory [3, 16]: 85
Plant response rating, Morningglory [3, 17]: 90
Plant response rating, Morningglory [3, 18]: 90
Plant response rating, Morningglory ([3]; 125 g ai/ha, scale 0 to 100): 100
Plant response rating, Sunflower ([4]; 16 g ai/ha): 65
Plant response rating, Sunflower ([4]; 31 g ai/ha): 70
Plant response rating, Sunflower ([4]; 62 g ai/ha): 90
pest or weed control at 16 g/ha ([5]; Amaranthus retroflexus, post-emergence, Postemergence, read-out: Plant response rating (scale of 0 to 100), Pigweed): 85%
pest or weed control at 31 g/ha ([5]; Amaranthus retroflexus, post-emergence, Postemergence, 31 g ai/ha, read-out: Plant response rating (scale of 0 to 100), Pigweed): 95%
pest or weed control at 62 g/ha ([5]; Amaranthus retroflexus, post-emergence, Postemergence, 62 g ai/ha, read-out: Plant response rating (scale of 0 to 100), Pigweed): 100%
pest or weed control at 125 g/ha ([5]; Amaranthus retroflexus, post-emergence, Postemergence, 125 g ai/ha, scale 0 to 100 (0 no effect, 100 complete control), read-out: Pigweed plant response rating): 100%
pest or weed control at 16 g/ha ([5]; Amaranthus retroflexus, pre-emergence, Preemergence, scale 0 to 100, 0 no effect, 100 complete control, read-out: Plant response rating, Pigweed): 70%
Plant response rating, Pigweed [5, 13]: 70
Plant response rating, Pigweed [5, 14]: 80
pest or weed control at 16 g/ha ([6]; Eriochloa villosa, post-emergence, Postemergence, read-out: Plant response rating (scale of 0 to 100), Cupgrass, Woolly): 30%
pest or weed control at 31 g/ha ([6]; Eriochloa villosa, post-emergence, Postemergence, 31 g ai/ha, read-out: Plant response rating (scale of 0 to 100), Cupgrass, Woolly): 60%
pest or weed control at 62 g/ha ([6]; Eriochloa villosa, post-emergence, Postemergence, 62 g ai/ha, read-out: Plant response rating (scale of 0 to 100), Cupgrass, Woolly): 60%
pest or weed control at 125 g/ha ([6]; Eriochloa villosa, post-emergence, Postemergence, 125 g ai/ha, scale 0 to 100 (0 no effect, 100 complete control), read-out: Cupgrass, Woolly plant response rating): 80%
pest or weed control at 16 g/ha ([6]; Eriochloa villosa, pre-emergence, Preemergence, scale 0 to 100, 0 no effect, 100 complete control, read-out: Plant response rating, Cupgrass, Woolly): 0%
Plant response rating, Cupgrass, Woolly [6, 13]: 0
Plant response rating, Cupgrass, Woolly [6, 14]: 0
Plant response rating, Cupgrass, Woolly [6, 15]: 0
Plant response rating, Johnsongrass [7, 13]: 0
Plant response rating, Johnsongrass [7, 14]: 5
Plant response rating, Johnsongrass [7, 15]: 40
pest or weed control at 16 g/ha ([7]; Sorghum halepense, post-emergence, Postemergence, read-out: Plant response rating (scale of 0 to 100), Johnsongrass): 15%
pest or weed control at 31 g/ha ([7]; Sorghum halepense, post-emergence, Postemergence, 31 g ai/ha, read-out: Plant response rating (scale of 0 to 100), Johnsongrass): 35%
pest or weed control at 62 g/ha ([7]; Sorghum halepense, post-emergence, Postemergence, 62 g ai/ha, read-out: Plant response rating (scale of 0 to 100), Johnsongrass): 65%
pest or weed control at 125 g/ha ([7]; Sorghum halepense, post-emergence, Postemergence, 125 g ai/ha, scale 0 to 100 (0 no effect, 100 complete control), read-out: Johnsongrass plant response rating): 70%
pest or weed control at 16 g/ha ([7]; Sorghum halepense, pre-emergence, Preemergence, scale 0 to 100, 0 no effect, 100 complete control, read-out: Plant response rating, Johnsongrass): 0%
pest or weed control at 16 g/ha ([8]; Abutilon theophrasti, post-emergence, Postemergence, 16 g ai/ha, read-out: Plant response rating (scale of 0 to 100), Velvetleaf): 55%
pest or weed control at 31 g/ha ([8]; Abutilon theophrasti, post-emergence, Postemergence, 31 g ai/ha, read-out: Plant response rating (scale of 0 to 100), Velvetleaf): 90%
pest or weed control at 125 g/ha ([8]; Abutilon theophrasti, post-emergence, Postemergence, 125 g ai/ha, scale 0 to 100 (0 no effect, 100 complete control), read-out: Velvetleaf plant response rating): 95%
Plant response rating, Velvetleaf ([8]; 16 g ai/ha): 60
Plant response rating, Velvetleaf ([8]; 31 g ai/ha): 85
Plant response rating, Velvetleaf ([8]; 62 g ai/ha): 90
Plant response rating, Foxtail, Giant [9, 13]: 0
Plant response rating, Foxtail, Giant [9, 14]: 0
Plant response rating, Foxtail, Giant [9, 15]: 0
pest or weed control at 125 g/ha ([9]; Setaria faberi, post-emergence, Postemergence, 125 g ai/ha, scale 0 to 100 (0 no effect, 100 complete control), read-out: Foxtail, Giant plant response rating): 75%
pest or weed control at 16 g/ha ([9]; Setaria faberi, post-emergence, Postemergence, read-out: Plant response rating (scale of 0 to 100), Foxtail, Giant): 10%
pest or weed control at 31 g/ha ([9]; Setaria faberi, post-emergence, Postemergence, 31 g ai/ha, read-out: Plant response rating (scale of 0 to 100), Foxtail, Giant): 60%
pest or weed control at 62 g/ha ([9]; Setaria faberi, post-emergence, Postemergence, 62 g ai/ha, read-out: Plant response rating (scale of 0 to 100), Foxtail, Giant): 65%
pest or weed control at 16 g/ha ([9]; Setaria faberi, pre-emergence, Preemergence, scale 0 to 100, 0 no effect, 100 complete control, read-out: Plant response rating, Foxtail, Giant): 0%
Plant response rating, Cocklebur [10, 16]: 85
Plant response rating, Cocklebur [10, 17]: 95
Plant response rating, Cocklebur [10, 18]: 95
Plant response rating, Cocklebur ([10]; 125 g ai/ha, scale 0 to 100): 100
pest or weed control at 16 g/ha ([10]; Xanthium strumarium, post-emergence, Postemergence, 16 g ai/ha, read-out: Plant response rating (scale of 0 to 100), Cocklebur): 90%
pest or weed control at 31 g/ha ([10]; Xanthium strumarium, post-emergence, Postemergence, 31 g ai/ha, read-out: Plant response rating (scale of 0 to 100), Cocklebur): 100%
pest or weed control at 125 g/ha ([10]; Xanthium strumarium, post-emergence, Postemergence, 125 g ai/ha, scale 0 to 100 (0 no effect, 100 complete control), read-out: Cocklebur plant response rating): 100%
pest or weed control at 16 g/ha ([11]; Cyperus, post-emergence, Postemergence, read-out: Plant response rating (scale of 0 to 100), Nutsedge, Yellow): 0%
pest or weed control at 31 g/ha ([11]; Cyperus, post-emergence, Postemergence, 31 g ai/ha, read-out: Plant response rating (scale of 0 to 100), Nutsedge, Yellow): 0%
pest or weed control at 62 g/ha ([11]; Cyperus, post-emergence, Postemergence, 62 g ai/ha, read-out: Plant response rating (scale of 0 to 100), Nutsedge, Yellow): 15%
pest or weed control at 125 g/ha ([11]; Cyperus, post-emergence, Postemergence, 125 g ai/ha, scale 0 to 100 (0 no effect, 100 complete control), read-out: Nutsedge, Yellow plant response rating): 40%
pest or weed control at 16 g/ha ([11]; Cyperus, pre-emergence, Preemergence, scale 0 to 100, 0 no effect, 100 complete control, read-out: Plant response rating, Nutsedge, Yellow): 0%
Plant response rating, Nutsedge, Yellow [11, 13]: 0
Plant response rating, Nutsedge, Yellow [11, 14]: 0
pest or weed control at 16 g/ha ([12]; Bassia scoparia, post-emergence, Postemergence, 16 g ai/ha, read-out: Plant response rating (scale of 0 to 100), Kochia): 75%
pest or weed control at 31 g/ha ([12]; Bassia scoparia, post-emergence, Postemergence, read-out: Plant response rating (scale of 0 to 100), Kochia): 90%
pest or weed control at 62 g/ha ([12]; Bassia scoparia, post-emergence, Postemergence, 62 g ai/ha, read-out: Plant response rating (scale of 0 to 100), Kochia): 90%
pest or weed control at 125 g/ha ([12]; Bassia scoparia, post-emergence, Postemergence, 125 g ai/ha, scale 0 to 100 (0 no effect, 100 complete control), read-out: Kochia plant response rating): 95%
pest or weed control at 31 g/ha ([12]; Bassia scoparia, pre-emergence, Preemergence, scale 0 to 100, 0 no effect, 100 complete control, read-out: Plant response rating, Kochia): 75%
Plant response rating, Kochia ([12]; Preemergence, 16 g ai/ha, scale 0 to 100, 0 no effect, 100 complete control): 60
Plant response rating, Kochia [12, 14]: 75
Plant response rating, Kochia [12, 15]: 100
